Measurements reported in US12565505B2, “mTORC modulators and uses thereof” (Aeovian Pharmaceuticals, Inc., priority 2019, dated 2026).

Legend:
mTORC1 = molecular target: T1, mTORC1 (Homo sapiens, UniProt P42345+P62942); experiment: Inhibition assay for mTORC1: phosphorylation of pS6K at Thr389, AlphaLISA SureFire in PC3 cells; type: cell-based; settings: PC3 cells, 24 hours treatment, pS6K Thr389, analogs substituted at C40 and C16 (C16 diastereomer mixtures not isolated)
T1 construct: endogenous in cells; host or cells: PC3 cells (human prostate adenocarcinoma)
Method in brief: (§1)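 Human prostate adenocarcinoma PC3 cells treated with compounds for 24 h. AlphaLISA SureFire read-out of pS6K Thr389 for mTORC1 and pAkt Ser473 for mTORC2, from which IC50s were derived.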

mTORC2 = molecular target: T2, mTORC2 (Homo sapiens, UniProt P42345+P62942); experiment: Inhibition assay for mTORC2: phosphorylation of pAkt at Ser473, AlphaLISA SureFire in PC3 cells; type: cell-based; settings: PC3 cells, 24 hours treatment, analogs substituted at C40 and C16 (C16 diastereomer mixtures not isolated)
T2 construct: endogenous in cells; host or cells: PC3 cells (human prostate adenocarcinoma)
Method in brief: as §1

| Molecule | IC50 (mTORC1; read-out: pIC50 mTORC1 (converted)) [nM] | IC50 (mTORC2; read-out: pIC50 mTORC2 (converted)) [nM] | pIC50 mTORC1 (mTORC1) | pIC50 mTORC2 (mTORC2) |
| --- | --- | --- | --- | --- |
| CO[C@@H]1C[C@H](C[C@@H](C)[C@@H]2CC(=O)[C@H](C)/C=C(\C)[C@@H](O)[C@@H](OC)C(=O)[C@H](C)C[C@H](C)/C=C/C=C/C=C(\C)C(OCc3ccccc3)C[C@@H]3CC[C@@H](C)[C@@](O)(O3)C(=O)C(=O)N3CCCCC3C(=O)O2)CC[C@H]1OC(=O)NCCc1ccccc1 (stereo partly shown) [Compound 117] | < 0.316 | < 1000 |  |  |
| (1R,9S,12SR,15R,16E,18R,19R,21R,23S,24E,26E,28E,32SR,35R)-1,18-dihydroxy-30-(3-hydroxypropoxy)-19-methoxy-12-[(1R)-2-[(1S,3R,4R)-3-methoxy-4-(3-phenylpropoxy)cyclohexyl]-1-methyl-ethyl]-15,17,21,23,29,35-hexamethyl-11,36-dioxa-4-azatricyclo[30.3.1.0^4,9]hexatriaconta-16,24,26,28-tetraene-2,3,10,14,20-pentone [Compound 67] |  |  | B (8.5 to 9.5 as B) | A (PIC50 for mTORC2 of <5 as A) |
